1 compound from paper PMC5218480 (PLoS ONE, 2017) can be followed below.

The assay concerns MV-4-11 cells. In words: Gene expression microarray analysis (Affymetrix PrimeView) and GSEA. It is filed as cell-based, human. Set-up: RFU PODN (11730768_x_at) / Fold change /veh PODN (11730768_x_at) / RFU LINC00158 (11744669_a_at) / Fold change /veh LINC00158 (11744669_a_at) / RFU DUSP10 (11751237_a_at) / Fold change /veh DUSP10 (11751237_a_at) / RFU ID3 (11757404_x_at) / Fold change /veh ID3 (11757404_x_at) / RFU PLEKHG5 (11737974_s_at) / Fold change /veh PLEKHG5 (11737974_s_at) / RFU LRRC4B (11730491_at) / Fold change /veh LRRC4B (11730491_at) / RFU GIMAP4 (11747438_a_at) / Fold change /veh GIMAP4 (11747438_a_at) / RFU KRT8 (11758183_x_at) / Fold change /veh KRT8 (11758183_x_at) / RFU CNN1 (11734310_a_at) / Fold change /veh CNN1 (11734310_a_at) / RFU VPS37D (11726825_at) / Fold change /veh VPS37D (11726825_at) / RFU C10orf10 (11716522_x_at) / Fold change /veh C10orf10 (11716522_x_at) / RFU KIR2DL2 /// KIR2DL4 /// KIR2DL5A /// KIR2DL5B /// KIR2DS1 /// KIR2DS2 /// KIR2DS3 /// KIR2DS4 /// KIR3DL3 /// KIR3DL3 /// KIR3DS1 (11738374_at) / Fold change /veh KIR2DL2 /// KIR2DL4 /// KIR2DL5A /// KIR2DL5B /// KIR2DS1 /// KIR2DS2 /// KIR2DS3 /// KIR2DS4 /// KIR3DL3 /// KIR3DL3 /// KIR3DS1 (11738374_at) / RFU C1QL1 (11718748_at) / Fold change /veh C1QL1 (11718748_at) / RFU TMPRSS4 (11747572_a_at) / Fold change /veh TMPRSS4 (11747572_a_at) / RFU HAMP (11756126_x_at) / Fold change /veh HAMP (11756126_x_at) / RFU RNFT2 (11725882_a_at) / Fold change /veh RNFT2 (11725882_a_at) / RFU NR4A2 (11747474_a_at) / Fold change /veh NR4A2 (11747474_a_at) / RFU ABCC12 (11746883_a_at) / Fold change /veh ABCC12 (11746883_a_at) / RFU TMEM136 (11760407_x_at) / Fold change /veh TMEM136 (11760407_x_at) / RFU CLDN22 /// WWC2 (11732394_at) / Fold change /veh CLDN22 /// WWC2 (11732394_at) / RFU HLA-DPB1 (11760878_x_at) / Fold change /veh HLA-DPB1 (11760878_x_at) / RFU SPINT1 (11716480_a_at) / Fold change /veh SPINT1 (11716480_a_at) / RFU GAP43 (11754022_s_at) / Fold change /veh GAP43 (11754022_s_at) / RFU A4GNT (11735810_at) / Fold change /veh A4GNT (11735810_at) / RFU PRB3 (11715151_x_at) / Fold change /veh PRB3 (11715151_x_at) / RFU TUBB4B (11761932_at) / Fold change /veh TUBB4B (11761932_at) / RFU CAPN14 (11732068_a_at) / Fold change /veh CAPN14 (11732068_a_at) / RFU TMCC2 (11721928_a_at) / Fold change /veh TMCC2 (11721928_a_at) / RFU IRGQ (11745062_a_at) / Fold change /veh IRGQ (11745062_a_at) / RFU FAM174B (11720279_a_at) / Fold change /veh FAM174B (11720279_a_at) / RFU TMPRSS4 (11748680_a_at) / Fold change /veh TMPRSS4 (11748680_a_at) / RFU FAM212B (11763350_a_at) / Fold change /veh FAM212B (11763350_a_at) / RFU PLEKHG5 (11743358_a_at) / Fold change /veh PLEKHG5 (11743358_a_at) / RFU ZSCAN30 (11745921_a_at) / Fold change /veh ZSCAN30 (11745921_a_at) / RFU CMKLR1 (11741424_a_at) / Fold change /veh CMKLR1 (11741424_a_at) / RFU LOC101060620 /// MAPK8IP1 (11723275_at) / Fold change /veh LOC101060620 /// MAPK8IP1 (11723275_at) / RFU SPTSSB (11747773_x_at) / Fold change /veh SPTSSB (11747773_x_at) / RFU PRSS12 (11739890_at) / Fold change /veh PRSS12 (11739890_at) / RFU BIN1 (11741810_x_at) / Fold change /veh BIN1 (11741810_x_at) / RFU WNT11 (11732464_a_at) / Fold change /veh WNT11 (11732464_a_at) / RFU C10orf10 (11716521_a_at) / Fold change /veh C10orf10 (11716521_a_at) / RFU C5orf56 (11738089_at) / Fold change /veh C5orf56 (11738089_at) / RFU CYB561 (11721691_x_at) / Fold change /veh CYB561 (11721691_x_at) / RFU ANKRD19P (11752326_a_at) / Fold change /veh ANKRD19P (11752326_a_at) / RFU OR2T12 /// OR2T33 /// OR2T8 (11738714_s_at) / Fold change /veh OR2T12 /// OR2T33 /// OR2T8 (11738714_s_at) / RFU VCAN (11748164_a_at) / Fold change /veh VCAN (11748164_a_at) / RFU JSRP1 (11732532_at) / Fold change /veh JSRP1 (11732532_at) / RFU KRTAP10-11 (11738290_x_at) / Fold change /veh KRTAP10-11 (11738290_x_at) / RFU MYO3A (11730013_a_at) / Fold change /veh MYO3A (11730013_a_at) / RFU EBF3 (11725865_a_at) / Fold change /veh EBF3 (11725865_a_at) / RFU CAMK2N1 (11719241_x_at) / Fold change /veh CAMK2N1 (11719241_x_at) / RFU C5orf56 (11738088_a_at) / Fold change /veh C5orf56 (11738088_a_at) / RFU OLFML3 (11715873_a_at) / Fold change /veh OLFML3 (11715873_a_at) / RFU LOC100653217 /// NTM (11731650_a_at) / Fold change /veh LOC100653217 /// NTM (11731650_a_at) / RFU MAPK11 (11762145_a_at) / Fold change /veh MAPK11 (11762145_a_at) / RFU FIZ1 (11724087_x_at) / Fold change /veh FIZ1 (11724087_x_at) / RFU OASL (11726364_x_at) / Fold change /veh OASL (11726364_x_at) / RFU SOX15 (11748057_x_at) / Fold change /veh SOX15 (11748057_x_at) / RFU CD79A (11719716_a_at) / Fold change /veh CD79A (11719716_a_at) / RFU HIST1H1D (11736915_at) / Fold change /veh HIST1H1D (11736915_at) / RFU CASKIN2 (11723855_a_at) / Fold change /veh CASKIN2 (11723855_a_at) / RFU LOC730098 (11760151_x_at) / Fold change /veh LOC730098 (11760151_x_at) / RFU OR4N2 (11742367_at) / Fold change /veh OR4N2 (11742367_at) / RFU PRRT2 (11749266_a_at) / Fold change /veh PRRT2 (11749266_a_at) / RFU SNX32 (11753110_a_at) / Fold change /veh SNX32 (11753110_a_at) / RFU CDHR5 (11726645_a_at) / Fold change /veh CDHR5 (11726645_a_at) / RFU RCAN1 (11760418_a_at) / Fold change /veh RCAN1 (11760418_a_at) / RFU FAM167A (11723789_a_at) / Fold change /veh FAM167A (11723789_a_at) / RFU FAM26E (11764081_at) / Fold change /veh FAM26E (11764081_at) / RFU ISYNA1 (11749810_s_at) / Fold change /veh ISYNA1 (11749810_s_at) / RFU ACY1 (11761880_at) / Fold change /veh ACY1 (11761880_at) / RFU 11764098_at / Fold change /veh 11764098_at / RFU SAMD14 (11745864_x_at) / Fold change /veh SAMD14 (11745864_x_at) / RFU NPB (11741838_a_at) / Fold change /veh NPB (11741838_a_at) / RFU TMPRSS6 (11731388_a_at) / Fold change /veh TMPRSS6 (11731388_a_at) / RFU KRTAP10-2 (11738614_at) / Fold change /veh KRTAP10-2 (11738614_at) / RFU ARHGAP8 /// PRR5-ARHGAP8 (11727945_x_at) / Fold change /veh ARHGAP8 /// PRR5-ARHGAP8 (11727945_x_at) / RFU KRTAP5-7 /// NADSYN1 (11734609_at) / Fold change /veh KRTAP5-7 /// NADSYN1 (11734609_at) / RFU RASL12 (11751679_a_at) / Fold change /veh RASL12 (11751679_a_at) / RFU CDKN2B (11736163_a_at) / Fold change /veh CDKN2B (11736163_a_at) / RFU PRF1 (11729649_at) / Fold change /veh PRF1 (11729649_at) / RFU, ZNF638 /// ZNF638-IT1 / Fold change vs veh, ZNF638 /// ZNF638-IT1 / RFU, PANK3 / Fold change vs veh, PANK3 / RFU, SH3YL1 / Fold change vs veh, SH3YL1 / RFU, ZEB2 / Fold change vs veh, ZEB2 / RFU, NRIP1 / Fold change vs veh, NRIP1 / RFU, PTTG1IP / Fold change vs veh, PTTG1IP / RFU, CAPN2 / Fold change vs veh, CAPN2 / RFU, MED14 / Fold change vs veh, MED14 / RFU, SNORA58 / Fold change vs veh, SNORA58 / RFU, C1orf63 / Fold change vs veh, C1orf63 / RFU, LRRFIP1 / Fold change vs veh, LRRFIP1 / RFU, NDUFAF7 / Fold change vs veh, NDUFAF7 / RFU, SLC12A2 / Fold change vs veh, SLC12A2 / RFU, IBTK / Fold change vs veh, IBTK / RFU, ESF1 / Fold change vs veh, ESF1 / Fold change vs veh, TMEM50B / RFU, TAOK1 / Fold change vs veh, TAOK1 / RFU, ACBD3 / Fold change vs veh, ACBD3 / RFU, TMA16 / Fold change vs veh, TMA16 / RFU, RWDD3 / Fold change vs veh, RWDD3 / RFU, BCAT1 / Fold change vs veh, BCAT1 / RFU, EDEM3 / Fold change vs veh, EDEM3 / RFU, TMEM33 / Fold change vs veh, TMEM33 / RFU, WDR75 / Fold change vs veh, WDR75 / RFU, AHCTF1 / Fold change vs veh, AHCTF1 / RFU, TFRC / Fold change vs veh, TFRC / RFU, ZDHHC17 / Fold change vs veh, ZDHHC17 / RFU, NOM1 / Fold change vs veh, NOM1 / RFU, ARL8B / Fold change vs veh, ARL8B / RFU, ZBTB11 / Fold change vs veh, ZBTB11 / RFU, TAMM41 / Fold change vs veh, TAMM41 / RFU, KIAA1704 /// LOC100996395 / Fold change vs veh, KIAA1704 /// LOC100996395 / RFU, ING1 / Fold change vs veh, ING1 / RFU, TRMT61B / Fold change vs veh, TRMT61B / RFU, FUBP3 / Fold change vs veh, FUBP3 / RFU, TP53 / Fold change vs veh, TP53 / RFU, TNKS2 / Fold change vs veh, TNKS2 / RFU, ZFP14 / Fold change vs veh, ZFP14 / RFU, ACTR2 / Fold change vs veh, ACTR2 / RFU, PPP3R1 / Fold change vs veh, PPP3R1 / RFU, PIK3R1 / Fold change vs veh, PIK3R1 / RFU, HNRNPA1 / Fold change vs veh, HNRNPA1 / RFU, RNF170 / Fold change vs veh, RNF170 / RFU, ZNF28 / Fold change vs veh, ZNF28 / RFU, RNGTT / Fold change vs veh, RNGTT / RFU, OGT / Fold change vs veh, OGT / RFU, BRD1 / Fold change vs veh, BRD1 / RFU, MARS / Fold change vs veh, MARS / RFU, ZNF655 / Fold change vs veh, ZNF655 / RFU, FAHD1 / Fold change vs veh, FAHD1 / RFU, BDP1 / Fold change vs veh, BDP1 / RFU, LRRCC1 / Fold change vs veh, LRRCC1 / RFU, ARID1A / Fold change vs veh, ARID1A / RFU, ZNF146 / Fold change vs veh, ZNF146 / RFU, ZNF330 / Fold change vs veh, ZNF330 / RFU, GPN3 / Fold change vs veh, GPN3 / RFU, C9orf123 / Fold change vs veh, C9orf123 / RFU, N4BP2L2 / Fold change vs veh, N4BP2L2 / RFU, ARFIP1 / Fold change vs veh, ARFIP1 / RFU, FAM179B / Fold change vs veh, FAM179B / RFU, BCL10 / Fold change vs veh, BCL10 / RFU, UHRF1BP1L / Fold change vs veh, UHRF1BP1L / RFU, BET1 / Fold change vs veh, BET1 / RFU, CNOT2 / Fold change vs veh, CNOT2 / RFU, ZNF268 / Fold change vs veh, ZNF268 / Fold change vs veh, ZNF507 / RFU, DGCR2 / Fold change vs veh, DGCR2 / RFU, WDSUB1 / Fold change vs veh, WDSUB1 / Fold change vs veh, HSP90B1 /// MIR3652 / RFU, ADSS / Fold change vs veh, ADSS / RFU, GK / Fold change vs veh, GK / RFU, ZNF148 / Fold change vs veh, ZNF148 / RFU, TAF9 / Fold change vs veh, TAF9 / RFU, SLC1A5 / Fold change vs veh, SLC1A5 / RFU, SLMO2 / Fold change vs veh, SLMO2 / RFU, ABCC4 / Fold change vs veh, ABCC4 / RFU, LOC101060439 /// RAP1B / Fold change vs veh, LOC101060439 /// RAP1B / RFU, RFX7 / Fold change vs veh, RFX7 / RFU, GTPBP10 / Fold change vs veh, GTPBP10 / RFU, CNEP1R1 / Fold change vs veh, CNEP1R1 / RFU, BIVM-ERCC5 /// ERCC5 / Fold change vs veh, BIVM-ERCC5 /// ERCC5 / RFU, ILF3 / Fold change vs veh, ILF3 / RFU 11762660_at / Fold change /veh 11762660_at / RFU VCAN (11757783_s_at) / Fold change /veh VCAN (11757783_s_at) / RFU DDX43 (11728927_at) / Fold change /veh DDX43 (11728927_at) / RFU KRT8 (11758188_x_at) / Fold change /veh KRT8 (11758188_x_at) / RFU NKD1 (11759106_at) / Fold change /veh NKD1 (11759106_at) / RFU SRD5A1 (11742802_a_at) / Fold change /veh SRD5A1 (11742802_a_at) / RFU TPSAB1 /// TPSB2 (11721975_s_at) / Fold change /veh TPSAB1 /// TPSB2 (11721975_s_at) / RFU GSTM3 (11746129_a_at) / Fold change /veh GSTM3 (11746129_a_at) / RFU IL23R (11737362_x_at) / Fold change /veh IL23R (11737362_x_at) / RFU TMEM51 (11727254_a_at) / Fold change /veh TMEM51 (11727254_a_at) / RFU PIWIL2 (11732686_x_at) / Fold change /veh PIWIL2 (11732686_x_at) / RFU ORM1 (11744905_x_at) / Fold change /veh ORM1 (11744905_x_at) / RFU CCDC152 (11743942_at) / Fold change /veh CCDC152 (11743942_at) / RFU ECM1 (11717891_a_at) / Fold change /veh ECM1 (11717891_a_at) / RFU IL23R (11748794_a_at) / Fold change /veh IL23R (11748794_a_at) / RFU TNFAIP8L3 (11732012_x_at) / Fold change /veh TNFAIP8L3 (11732012_x_at) / RFU MBOAT4 (11741988_at) / Fold change /veh MBOAT4 (11741988_at) / RFU 11764193_at / Fold change /veh 11764193_at / RFU TMEM53 (11763286_at) / Fold change /veh TMEM53 (11763286_at) / RFU MAGEB2 (11727129_at) / Fold change /veh MAGEB2 (11727129_at) / RFU TMEM200A (11744735_a_at) / Fold change /veh TMEM200A (11744735_a_at) / RFU CCDC152 (11751479_a_at) / Fold change /veh CCDC152 (11751479_a_at) / RFU FAM211A (11726209_a_at) / Fold change /veh FAM211A (11726209_a_at) / RFU RGS16 (11746705_a_at) / Fold change /veh RGS16 (11746705_a_at) / RFU VCAN (11755009_s_at) / Fold change /veh VCAN (11755009_s_at) / RFU RHOB (11743442_s_at) / Fold change /veh RHOB (11743442_s_at) / RFU RGS16 (11720943_a_at) / Fold change /veh RGS16 (11720943_a_at) / RFU RGS16 (11720944_at) / Fold change /veh RGS16 (11720944_at) / RFU, VPS4B / Fold change vs veh, VPS4B / RFU, CREB1 / Fold change vs veh, CREB1 / RFU, DNAJC13 / Fold change vs veh, DNAJC13 / RFU, GNAQ / Fold change vs veh, GNAQ / RFU, CDK5R1 / Fold change vs veh, CDK5R1 / RFU, ZRANB3 / Fold change vs veh, ZRANB3 / RFU, CUL4A / Fold change vs veh, CUL4A / RFU, CCNY / Fold change vs veh, CCNY / RFU, UFL1 / Fold change vs veh, UFL1 / RFU, COG3 / Fold change vs veh, COG3 / RFU, DIAPH2 / Fold change vs veh, DIAPH2 / RFU, SKA2 / Fold change vs veh, SKA2 / RFU, AFF3 / Fold change vs veh, AFF3 / RFU, LMF1 / Fold change vs veh, LMF1 / RFU, IPO11 / Fold change vs veh, IPO11 / RFU, DFFB / Fold change vs veh, DFFB / RFU, FOXP1 / Fold change vs veh, FOXP1 / RFU, CARD8 / Fold change vs veh, CARD8 / RFU, STRN3 / Fold change vs veh, STRN3 / RFU, ADK / Fold change vs veh, ADK / RFU, RASSF2 / Fold change vs veh, RASSF2 / RFU, WIPF1 / Fold change vs veh, WIPF1 / RFU, LARP1B / Fold change vs veh, LARP1B / RFU, RASA1 / Fold change vs veh, RASA1 / RFU, RB1 / Fold change vs veh, RB1 / RFU, PPFIA1 / Fold change vs veh, PPFIA1 / RFU, MAT2A / Fold change vs veh, MAT2A / RFU, CCT5 / Fold change vs veh, CCT5 / RFU, WDR92 / Fold change vs veh, WDR92 / RFU, CUX1 / Fold change vs veh, CUX1 / RFU, TTC7A / Fold change vs veh, TTC7A / RFU, TMEM135 / Fold change vs veh, TMEM135 / RFU, DEPTOR / Fold change vs veh, DEPTOR / RFU, CPM / Fold change vs veh, CPM / RFU, DNAJB6 / Fold change vs veh, DNAJB6 / RFU, CACNA2D3 / Fold change vs veh, CACNA2D3 / RFU, DTX4 / Fold change vs veh, DTX4 / RFU, TFCP2 / Fold change vs veh, TFCP2 / RFU, GMCL1 /// GMCL1P1 / Fold change vs veh, GMCL1 /// GMCL1P1 / RFU, AEBP2 / Fold change vs veh, AEBP2 / RFU, SNHG1 /// SNORD22 /// SNORD25 /// SNORD26 /// SNORD27 /// SNORD28 /// SNORD29 /// SNORD31 / Fold change vs veh, SNHG1 /// SNORD22 /// SNORD25 /// SNORD26 /// SNORD27 /// SNORD28 /// SNORD29 /// SNORD31 / Fold change (Aza/veh), C12orf56 (ProbeSet 11735607_a_at) / Fold change (ACY-1035/veh), C12orf56 (ProbeSet 11735607_a_at) / Fold change (Aza/veh), FGFR1OP (ProbeSet 11751329_s_at) / Fold change (ACY-1035/veh), FGFR1OP (ProbeSet 11751329_s_at) / Fold change (Aza/veh), VPS36 (ProbeSet 11739960_a_at) / Fold change (ACY-1035/veh), VPS36 (ProbeSet 11739960_a_at) / RFU SYPL1 (11715823_x_at) / Fold change /veh SYPL1 (11715823_x_at) / RFU IGFBP7 (11715501_s_at) / Fold change /veh IGFBP7 (11715501_s_at) / RFU REEP3 (11722064_at) / Fold change /veh REEP3 (11722064_at) / RFU IGLL1 (11728026_x_at) / Fold change /veh IGLL1 (11728026_x_at): dose or concentration left out as unconfirmed. To be noted: MV-4-11 cells, 48 hours.

Turning to `Nc1ncn([C@@H]2O[C@H](CO)[C@@H](O)[C@H]2O)c(=O)n1` [azacitidine], the “RFU KRTAP5-7 /// NADSYN1 (11734609_at)” value stood at 11.87 RFU.
